From patent US8574578B2, “Antibodies against PDGFRα to inhibit tumor growth” (ImClone LLC, priority 2006, dated 2013)

How the values were obtained:
[1] = test system: Akt phosphorylation in PC3-ML cells; experiment: Akt phosphorylation in PC3-ML cells (Western blot); assay type: cell-based, human; details: 20 μM AG-1296
Method: Bone marrow samples from normal male donors (ages 18-45) were supplied by Cambrex (Poietics™ Donor Program). Samples were centrifuged at 1,500 rpm in order to separate the soluble and cellular phases. The supernatant was filtered using 0.8 μm and 0.22 μm filters in succession. 50 μl of bone marrow aspirate was administered to cells in 1 ml of medium (1:20 final dilution).
For experiments performed in the presence of serum, cells were cultured in DMEM supplemented with 10% FBS and 50 μg/ml gentamycin for 24 hours prior to exposure to bone marrow. For experiments in the absence of serum (starved cells), cells were washed twice with PBS, the growth medium was replaced with serum-free DMEM, and the cells were incubated for 4 hours prior to exposure to bone marrow preparations. When used, AG-1296, a specific inhibitor of PDGF receptors (Rice et al., 1999, Amer. J. Path. 155, 213-21) was added to cultures 30 min. prior to exposure to bone marrowaspirate. IMC-3G3 antibodies were administered as described at pre-treatment times as stated below.

[2] = test system: LuCaP 35V xenograft; experiment: Serum PSA in mice carrying LuCaP 35V xenografts (IMx Total PSA Assay); assay type: in vivo, castrated SCID mice
Method: (§1) All treatments were administered intraperitoneally (ip). Docetaxel was administered once a week. A12 was administered three times a week. […] Animals were weighed twice a week. Blood samples were collected from orbital sinus weekly.

[3] = test system: LuCaP 23.1 human prostate tumor; experiment: Docetaxel with or without A12, LuCaP 23.1 intratibial xenografts, four weeks; assay type: in vivo, SCID mice
Method: LuCaP 23.1 human prostate tumor bits (20 to 30 mm^3) were mechanically digested. 2-5×10^5 viable LuCaP 23.1 cells were injected into the tibiae of 6-8 wk old SCID mice. 21 mice randomized into three groups were used for the study. After tumor injection, serum PSA was monitored weekly. Treatment started when serum PSA level reached 5-10 ng/ml, an indication of tumor growth. Group 1 received control vehicle saline buffer. Group 2 received 20 mg/kg of docetaxel i.p once a week for 4 weeks. Group 3 received 20 mg/kg of docetaxel once a week and 40 mg/kg of A12 i.p. three times a week for 4 weeks. To determine whether the response to treatment was osteoblastic or osteolytic, BMD was measured by Dexa-scan and x-rays of the animals at the end point of all treatments.

[4] = test system: LuCaP 23.1 prostate cancer cells; experiment: IMC-A12 + docetaxel, LuCaP 23.1 tibial bone metastases, six weeks (present-tense example); assay type: in vivo, castrated SCID mice; details: weekly PSA, during and after six weeks of treatment
Method: SCID mice are castrated 2 weeks prior to tibial tumor injections. Bone metastases are generated by direct injection of LuCaP 23.1 prostate cancer cells into the tibia of the mice, giving rise to osteoblastic lesions. The xenografts express IGF-IR. Serum PSA levels are measured biweekly to evaluate tumor growth. When serum PSA levels reach 5-10 ng/ml indicating established tumor, animals are randomized into four groups.
In two groups, 40 mg/kg of IMC-A12 are injected i.p. three times a week for six weeks with one group receiving IMC-A12+docetaxel 20 mg/kg i.p once a week for 6 weeks and a second group IMC-A12+docetaxel 10 mg i.p. three times a week for 6 weeks. Control groups receive 10 or 20 mg docetaxel i.p. without IMC-A12.
Animals are monitored with weekly PSA measurements. After termination of treatment, animals continue to be monitored with weekly PSA measurements until tumors in the docetaxel only groups show tumor regrowth. […] Reductions in PSA levels are observed to continue, even after termination of treatment at six weeks.
As indicated above, BMD measurements are made at the time of engraftment and at sacrifice, and radiographs are taken just prior to sacrifice.

[5] = test system: LuCaP 35V xenograft; experiment: TUNEL / propidium staining flow cytometry of tumor cells at time of sacrifice; assay type: in vivo, castrated SCID mice; details: percentage of tumors; for Apoptosis (%): four weeks after treatment termination; for G1 arrest (%) / G2 arrest (%) / Normal cycle (%): time of sacrifice
Method: After euthanization, tumors were collected and halved. A portion of the tumors were fixed in 10% neutral buffer formalin (NFB) and embedded in paraffin. Five micron sections were prepared for immunohistochemistry (IHC) staining. The remaining portion of the tumors was separated into single cells mechanically by mincing and filtering through 70 μm nylon sieves.
The combined in vivo effect of docetaxel and A12 treatment on cell cycle and cell survival at the experimental end point was measured by terminal deoxynucleotidyl transferase-mediated nick end labeling (TUNEL) assay and propidium (PI) staining using the Apop-Direct kit (BD BioScience) as previously described. Briefly, 1×10^6 cells from the single-cell suspension were fixed with 10% neutral buffer formalin (NBF) followed by 70% ethanol alcohol at −20° C. for 30 min. After several washes, cells were permeabilized with 0.1% Triton X-100 and incubated with FITC-conjugated dUTP and terminal deoxynucleotidyl transferase enzyme (TdT) at 37° C. for 1 h, followed by an incubation with PI/RNase buffer (100 μg/ml of PI, 50 μg/ml RNase) at room temperature for 60 min. Samples were analyzed by flow cytometry using a BD FACscan. Data were analyzed with CellQuest^PRO software.

[6] = test system: LuCaP 35V xenograft; experiment: LuCaP 35V subcutaneous xenograft tumor growth
Method: Tumor bits (20 to 30 mm^3) of androgen-independent (AI) LuCaP 35V were implanted subcutaneously (s.c.) into 32 six-week-old castrated SCID mice respectively as previously described (4). […] Group 1 animals received docetaxel treatment at a dose of 20 mg/kg. Group 2 animals received docetaxel treatment at a dose of 10 mg/kg. Group 3 animals received combined treatment of 10 mg/kg docetaxel and 40 mg/kg A12. Group 4 animals received combined treatment of 20 mg/kg docetaxel and 40 mg/kg A12. All treatments were administered intraperitoneally (ip). Docetaxel was administered once a week. A12 was administered three times a week. All animals were treated for four weeks and monitored for additional four weeks before euthanization. Tumors were measured twice weekly and tumor volume was estimated by the formula: volume=L×W^2/2. Following our University of Washington IACUC approved animal protocol, some animals were euthanized at an earlier time when tumor reached a volume of 1000 mm^3 or when animal weight loss exceeded 20% of initial body weight. Animals were weighed twice a week.

[7] = Overall cytotoxicity of coadministration of docetaxel and IMC-A12; assay type: in vivo, SCID mice; details: compared to control tumor-bearing animals
Method: as §1
Cytotoxicity of coadministration of docetaxel and IMC-A12 was examined.

[8] = test system: LuCaP 23.1 xenograft; experiment: IMC-A12 treatment of LuCaP 23.1 intratibial xenografts (PSA, BMD, radiographs); assay type: in vivo, castrated SCID mice
Method: Anti-IGF-IR antibody therapy for bone metastases. The effectiveness of treatment with anti-IGF-IR antibodies on metastatic growth of prostate cancer cells in bone was evaluated using prostate cancer cells injected directly into the tibia of SCID mice. By this method, metastatic tumors are established directly without reliance on chemotaxis dependent invasion from the circulation. A variety of tumor lines are available for establishing bone metastases. These include PC-3, LuCaP35, and LnCaP cells which produce osteolytic lesions and LuCaP 23.1 cells which produce osterblastic lesions.
To evaluate the effectiveness of treatment with IMC-A12, LuCaP 23.1 xenograft tumors were engrafted in SCID mice, and serum PSA levels were measured biweekly to evaluate tumor growth. All animals were castrated two weeks prior to tibial tumor cell engraftment. Administration of IMC-A12 to test mice was begun when serum PSA levels reached 5-10 ng/ml (indicating established tumors). 40 mg/kg IMC-A12 was injected i.p. three times a week for six weeks.
Bone mineral density (BMD) of the tumored tibiae and the contralateral tibiae without tumor was measured by Dual X-ray absorptiometry (PIXImus Lunar densitometer) performed on a 2.5 mm×2.5 mm area at the tumor cell injection site, or the corresponding site of the contralateral tibia at the time of engraftment. Biweekly assessment of lesions was made by serum PSA measurements. All animals were sacrificed when the bone lesions in the control group had recurred after castration based on serum PSA levels (LuCaP 35 >60 ng/ml, ng/ml, LuCaP 23.1 >500 ng/ml), radiographical appearance of the bone lesions or when animals became compromised. One hour prior to sacrifice animals were injected with BrdU to monitor tumor cell proliferation. Radiographs were taken prior to sacrifice (FaxitronX-ray MX-20), and BMD of both tibiae were measured at the time of sacrifice.

[9] = Post-treatment serum levels of A12; assay type: in vivo, SCID mice
Method: Serum levels of A12 were measured in animals that had received docetaxel combined with A12.

[10] = molecular target: murine IGF-IR (Mus musculus, UniProt Q60751); experiment: Cross-reactivity of A12 with murine IGF-IR; assay type: binding
[11] = 40 mg/kg IMC-A12 i.p. three times a week for six weeks, at sacrifice

murine IGF-IR, sequence (Q60751 31-1373): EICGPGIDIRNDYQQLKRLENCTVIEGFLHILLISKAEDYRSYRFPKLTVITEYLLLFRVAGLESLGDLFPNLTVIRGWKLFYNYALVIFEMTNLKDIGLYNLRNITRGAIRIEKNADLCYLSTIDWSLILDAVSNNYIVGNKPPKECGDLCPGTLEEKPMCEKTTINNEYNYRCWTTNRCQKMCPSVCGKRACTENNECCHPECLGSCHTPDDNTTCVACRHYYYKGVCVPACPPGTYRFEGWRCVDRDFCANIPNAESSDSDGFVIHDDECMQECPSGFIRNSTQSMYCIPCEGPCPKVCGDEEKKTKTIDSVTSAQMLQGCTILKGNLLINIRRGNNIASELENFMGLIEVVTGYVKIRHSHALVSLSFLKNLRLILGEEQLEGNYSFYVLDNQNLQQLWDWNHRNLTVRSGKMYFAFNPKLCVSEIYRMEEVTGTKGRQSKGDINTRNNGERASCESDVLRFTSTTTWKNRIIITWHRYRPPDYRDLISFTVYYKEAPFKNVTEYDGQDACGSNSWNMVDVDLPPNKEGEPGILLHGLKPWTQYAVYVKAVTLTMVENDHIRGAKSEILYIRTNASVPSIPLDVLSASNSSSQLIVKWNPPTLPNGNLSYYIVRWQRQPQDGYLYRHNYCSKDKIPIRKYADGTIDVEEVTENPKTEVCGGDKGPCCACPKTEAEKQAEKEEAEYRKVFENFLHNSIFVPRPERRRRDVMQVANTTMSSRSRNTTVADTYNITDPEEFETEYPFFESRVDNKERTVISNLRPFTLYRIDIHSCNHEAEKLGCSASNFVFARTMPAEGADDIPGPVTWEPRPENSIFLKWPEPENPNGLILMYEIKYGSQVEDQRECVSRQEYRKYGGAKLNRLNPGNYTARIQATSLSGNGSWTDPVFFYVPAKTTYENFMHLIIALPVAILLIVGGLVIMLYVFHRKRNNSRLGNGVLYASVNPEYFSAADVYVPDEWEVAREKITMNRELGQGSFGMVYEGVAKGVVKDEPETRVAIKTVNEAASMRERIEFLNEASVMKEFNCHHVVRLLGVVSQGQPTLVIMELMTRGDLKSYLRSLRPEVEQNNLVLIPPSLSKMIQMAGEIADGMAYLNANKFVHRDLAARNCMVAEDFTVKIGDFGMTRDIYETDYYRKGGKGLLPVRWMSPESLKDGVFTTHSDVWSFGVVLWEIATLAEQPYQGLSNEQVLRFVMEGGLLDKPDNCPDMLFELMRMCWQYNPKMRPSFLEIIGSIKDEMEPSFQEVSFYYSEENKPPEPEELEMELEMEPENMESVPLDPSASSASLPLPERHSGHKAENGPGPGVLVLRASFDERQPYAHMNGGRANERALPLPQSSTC

Molecule: COc1cc2ncc(-c3ccccc3)nc2cc1OC [AG-1296, reference compound]
- inhibition of bone marrow aspirate induced Akt activation [1]: more than 40%
- inhibition of PDGF-BB induced Akt activation ([1]; 30 ng/ml PDGF-BB): completely inhibits

Molecule: CC(=O)O[C@@]12CO[C@@H]1C[C@H](O)[C@@]1(C)C(=O)[C@H](O)C3=C(C)[C@@H](OC(=O)[C@H](O)[C@@H](NC(=O)OC(C)(C)C)c4ccccc4)C[C@@](O)([C@@H](OC(=O)c4ccccc4)[C@H]21)C3(C)C [docetaxel]
- serum PSA level during the four-week treatment ([2]; A12 + docetaxel, or 20 mg/kg docetaxel alone): no significant change
- serum PSA level after treatment termination ([2]; mouse, in vivo): increased
- LuCaP 23.1 tumor growth as reflected by serum PSA levels during treatment ([3]; docetaxel 20 mg/kg once a week, A12 40 mg/kg three times a week, 4 weeks): significantly inhibited
- serum PSA after treatment cessation ([3]; docetaxel 20 mg/kg, A12 40 mg/kg): began to increase
- average bone density (mean±SEM) ([3]; week five, docetaxel 20 mg/kg, A12 40 mg/kg): 0.09±0.02
- PSA levels [4]: rise
- Apoptosis (%) ([5]; docetaxel 10 mg/kg groups): No apoptosis
- Apoptosis (%) ([5]; docetaxel 10 mg/kg groups, listed as Doc (10)): 0%
- G1 arrest (%) ([5]; docetaxel 10 mg/kg groups): 0%
- G2 arrest (%) ([5]; docetaxel 10 mg/kg groups): 12%
- Normal cycle (%) ([5]; docetaxel 10 mg/kg groups): 88%
- Apoptosis (%) ([5]; docetaxel 20 mg/kg groups): No apoptosis
- Apoptosis (%) ([5]; docetaxel 20 mg/kg groups, listed as Doc (20)): 0%
- G1 arrest (%) ([5]; docetaxel 20 mg/kg groups): 0%
- G2 arrest (%) ([5]; docetaxel 20 mg/kg groups): 0%
- Normal cycle (%) ([5]; docetaxel 20 mg/kg groups): 100%
- rate of tumor volume increase in the four weeks following treatment termination ([6]; docetaxel 20 mg/kg alone): 27.0±16.1 mm^3/week
- tumor volume during the four-week treatment period ([6]; docetaxel 20 mg/kg with or without combined A12): tumor volume did not increase
- tumor growth rate during treatment ([6]; four-week ip treatment, A12 alone 40 μg/kg as printed, docetaxel 10 mg/kg, docetaxel 10 mg/kg + A12): 29.6±6.1 mm^3/week
- daily activity or behavior [7]: no abnormal daily activity or behavior changes

Molecule: IMC-A12: human IgG1 anti-IGF-IR antibody; heavy chain variable domain SEQ ID NO:41, light chain variable domain SEQ ID NO:51
- loss of bone density (osteoporosis), non-tumored legs ([8]; 40 mg/kg IMC-A12): did not cause a loss of bone density
- Bone mineral density (BMD), Non-tumored leg, Mean [8, 11]: 0.045
- Bone mineral density (BMD), Tumored Leg, Mean [8, 11]: significantly reduced
- Bone mineral density (BMD), Tumored Leg, Mean ([8]; 40 mg/kg IMC-A12 i.p. three times a week for six weeks, at sacrifice, listed as A12): 0.060
- Serum PSA levels ([8]; 40 mg/kg IMC-A12 vs untreated): significantly lower
- tumor progression on radiographs ([8]; 40 mg/kg IMC-A12 vs untreated): significantly reduced or prevented
- serum A12 level ([9]; four weeks after treatment cessation): very low level
- decline of serum A12 levels ([9]; two weeks after treatment cessation, animals received docetaxel combined with A12): 100 fold
- cross-reactivity with murine IGF-IR [10]: greater than 95%
